Molecular target: T1, reaction center (RC) of the LH1–RC complex (Rhodopila globiformis, UniProt A0A2S6NEG7+A0A2S6NEP5)
T1 construct: gene CCS01_15140; native LH1-RC core complex purified from chromatophores (LDAO, then DDM); closed LH1 ring; with Reaction center protein H chain; Photosynthetic reaction center cytochrome c subunit
Assay: cryo-EM structure, […] Å
Assay type: binding

T1 sequence (A0A2S6NEG7 1-275): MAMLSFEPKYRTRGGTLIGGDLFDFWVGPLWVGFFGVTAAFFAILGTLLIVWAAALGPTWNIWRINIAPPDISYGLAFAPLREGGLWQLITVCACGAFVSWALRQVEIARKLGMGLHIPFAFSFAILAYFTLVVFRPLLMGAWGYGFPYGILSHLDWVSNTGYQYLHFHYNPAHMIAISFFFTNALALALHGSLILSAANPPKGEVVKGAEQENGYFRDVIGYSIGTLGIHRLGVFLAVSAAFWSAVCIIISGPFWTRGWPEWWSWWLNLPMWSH
T1 sequence (A0A2S6NEP5 1-326): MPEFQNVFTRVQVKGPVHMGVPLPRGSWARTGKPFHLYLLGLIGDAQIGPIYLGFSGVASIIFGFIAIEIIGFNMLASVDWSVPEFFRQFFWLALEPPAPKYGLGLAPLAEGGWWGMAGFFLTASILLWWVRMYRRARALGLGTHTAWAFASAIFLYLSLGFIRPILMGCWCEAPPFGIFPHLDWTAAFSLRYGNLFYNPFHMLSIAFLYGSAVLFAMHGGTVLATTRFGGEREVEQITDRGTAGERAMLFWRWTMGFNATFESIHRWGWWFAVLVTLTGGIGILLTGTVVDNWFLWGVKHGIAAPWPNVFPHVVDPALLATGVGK
T1 sequence (A0A2S6MZS1 1-258 partner): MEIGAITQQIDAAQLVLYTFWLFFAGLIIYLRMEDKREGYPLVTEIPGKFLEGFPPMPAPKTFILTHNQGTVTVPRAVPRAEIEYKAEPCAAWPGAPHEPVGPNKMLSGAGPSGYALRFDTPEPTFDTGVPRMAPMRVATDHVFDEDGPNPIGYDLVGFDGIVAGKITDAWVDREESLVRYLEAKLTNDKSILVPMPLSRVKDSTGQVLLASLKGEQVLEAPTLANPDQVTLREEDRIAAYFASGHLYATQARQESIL
T1 sequence (A0A2S6NEK5 1-344 partner): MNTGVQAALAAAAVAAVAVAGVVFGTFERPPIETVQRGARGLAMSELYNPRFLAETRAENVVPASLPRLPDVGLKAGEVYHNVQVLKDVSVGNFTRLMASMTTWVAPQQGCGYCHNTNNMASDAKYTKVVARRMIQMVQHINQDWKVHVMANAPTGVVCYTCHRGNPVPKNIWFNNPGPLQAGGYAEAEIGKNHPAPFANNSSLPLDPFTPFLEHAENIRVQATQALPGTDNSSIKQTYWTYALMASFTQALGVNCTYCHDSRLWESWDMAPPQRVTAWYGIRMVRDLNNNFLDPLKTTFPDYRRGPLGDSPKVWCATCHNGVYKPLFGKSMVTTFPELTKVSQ

SMILES: CC[C@H]1c2cc3[nH]c4c(c3C)C(=O)[C@H](C(=O)OC)c4c3nc(cc4[nH]c(cc(n2)[C@@H]1C)c(C(C)=O)c4C)[C@@H](C)[C@@H]3CCC(=O)OC/C=C(\C)CCC[C@H](C)CCC[C@H](C)CCCC(C)C [BPhe a]
- cryo-EM structure, 2.24 Å: BPhe a, magenta sticks

— publication PMC9640540, “An LH1–RC photocomplex from an extremophilic phototroph provides insight into origins of two photosynthesis proteins” (Communications Biology, 2022)
